Article PMC7201284, “A complete compendium of crystal structures for the human SEPT3 subgroup reveals functional plasticity at a specific septin interface” (IUCrJ, 2020)

What was measured:
Assay in all cases: X-ray crystallography, co-crystallization
SEPT3α0G = molecular target: T1, SEPT3α0G (Homo sapiens, UniProt Q9UH03); settings: 1.83 Å; Mg2+ in active site; nucleotide-binding site at G interface
T1 construct: gene SEPTIN3; G domain plus polybasic helix α0, residues 43-330; expressed and purified as in Macedo et al. 2013; monomer in solution; homotypic G-interface dimers in crystal

SEPT9GC = molecular target: T2, SEPT9GC (Homo sapiens, UniProt Q9UHD8); settings: about 2.0 Å; Mg2+; nucleotide-binding site at G interface
T2 construct: gene SEPTIN9; G domain plus C-terminal region, residues 279-568, pET-28a(+) His-tag, E. coli Rosetta (DE3); monomer about 38 kDa; purified nucleotide-free
T2 sequence (Q9UHD8 279-568): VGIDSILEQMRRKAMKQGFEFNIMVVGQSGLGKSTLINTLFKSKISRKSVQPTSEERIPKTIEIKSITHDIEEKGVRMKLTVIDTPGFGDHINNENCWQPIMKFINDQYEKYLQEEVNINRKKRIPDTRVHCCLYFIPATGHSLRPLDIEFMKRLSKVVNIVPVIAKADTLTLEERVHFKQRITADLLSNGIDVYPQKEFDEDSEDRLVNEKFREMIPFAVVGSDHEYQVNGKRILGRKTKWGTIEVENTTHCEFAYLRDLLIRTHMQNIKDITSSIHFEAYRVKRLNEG

SEPT12G = molecular target: T3, SEPT12G (Homo sapiens, UniProt Q8IYM1); settings: Mg2+, nucleotide-binding site
T3 construct: gene SEPTIN12; G domain, residues 47-320, pET-28a(+) His-tag, E. coli Rosetta (DE3); monomer about 32 kDa
T3 sequence (Q8IYM1 47-320): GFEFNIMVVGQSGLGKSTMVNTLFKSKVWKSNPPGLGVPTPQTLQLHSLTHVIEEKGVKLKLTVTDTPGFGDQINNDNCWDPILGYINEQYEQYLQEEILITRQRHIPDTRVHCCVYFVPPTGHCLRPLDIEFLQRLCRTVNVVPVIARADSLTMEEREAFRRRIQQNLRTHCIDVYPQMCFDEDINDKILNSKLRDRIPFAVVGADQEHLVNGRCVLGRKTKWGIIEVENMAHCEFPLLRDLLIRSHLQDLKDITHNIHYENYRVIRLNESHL

SEPT3G = molecular target: T4, SEPT3G (Homo sapiens, UniProt Q9UH03); settings: 1.86 Å; Mg2+; nucleotide-binding site; b26 labels 4z51 as GTPγS but methods, Table 2 and results say GMPPNP
T4 construct: gene SEPTIN3; G domain without helix α0, residues 59-330; expressed and purified as in Macedo et al. 2013; monomer in solution; homotypic G-interface dimers in crystal
T4 sequence (Q9UH03 59-330): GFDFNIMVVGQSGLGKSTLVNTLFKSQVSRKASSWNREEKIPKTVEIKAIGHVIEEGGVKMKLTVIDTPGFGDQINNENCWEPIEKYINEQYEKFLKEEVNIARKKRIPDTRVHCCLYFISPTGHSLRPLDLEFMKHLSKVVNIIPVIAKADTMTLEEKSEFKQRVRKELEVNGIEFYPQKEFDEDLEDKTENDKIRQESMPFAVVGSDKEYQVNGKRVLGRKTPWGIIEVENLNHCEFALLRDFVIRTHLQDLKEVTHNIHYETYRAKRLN

T1 sequence (Q9UH03 43-330): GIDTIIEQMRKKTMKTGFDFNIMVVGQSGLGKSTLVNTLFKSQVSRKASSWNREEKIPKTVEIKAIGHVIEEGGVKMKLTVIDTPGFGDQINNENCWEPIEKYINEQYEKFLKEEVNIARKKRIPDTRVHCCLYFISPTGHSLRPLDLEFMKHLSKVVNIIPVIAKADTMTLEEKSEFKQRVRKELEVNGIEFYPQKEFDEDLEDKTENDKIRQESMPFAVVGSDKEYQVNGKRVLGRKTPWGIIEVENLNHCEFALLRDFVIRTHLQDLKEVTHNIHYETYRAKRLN

## Nc1nc2c(ncn2[C@@H]2O[C@H](COP(=O)(O)OP(=O)(O)O)[C@@H](O)[C@H]2O)c(=O)[nH]1 [GDP]
SEPT3α0G
  X-ray crystallography, co-crystallization: structures of the G domain of SEPT3 complexed with either GDP or the GTP mimetic GMPPNP
SEPT9GC
  X-ray crystallography, co-crystallization: The structure of SEPT9GC–GDP (PDB entry 5cyo) has a G-interface dimer in the asymmetric unit
SEPT12G; 2.19 Å, small quantity of GDP also co-purified
  X-ray crystallography, co-crystallization: In SEPT12G–GDP (PDB entry 6mqk) the metal ion is canonically coordinated by Thr89, Ser63

## Nc1nc2c(ncn2[C@@H]2O[C@H](COP(=O)(O)OP(=O)(O)NP(=O)(O)O)[C@@H](O)[C@H]2O)c(=O)[nH]1 [GMPPNP]
SEPT3G
  X-ray crystallography, co-crystallization: The SEPT3G–GMPPNP complex (PDB entry 4z51) has only one monomer per asymmetric unit
SEPT12G; 1.86 Å (P1, 6mq9) and 2.12 Å (C2221, 6mqb)
  X-ray crystallography, co-crystallization: Two structures were obtained in the presence of GMPPNP
